The record followed here is patent publication US10130590B2, “Methods of treating cancer with atovaquone-related compounds” (DANA-FARBER CANCER INSTITUTE, INC., priority 2013, dated 2018).

In one experiment the test system is HEL cells. In words: Cell viability (Cell Titer Glo), HEL. In kind it is cell-based. As to conditions: 72 hours. The procedure:
Western blotting was performed as previously described (Battle T E, Arbiser J, & Frank D A (2005) The natural product honokiol induces caspase dependent apoptosis in B-cell chronic lymphocytic leukemia (B-CLL) cells. Blood 106(2):690-697). Antibodies to phospho-MAPK (9101), total MAPK (9102), phospho-Y705 STAT3 (9131), phospho-S6 (2215), total S6 (2217), phospho-4E-BP1 (9451), total 4E-BP1 (9644), total RSK (9355), phospho-S6K (9234, 85 used at 1:5000), total S6K (2708), phospho-eIF2α (9721, used at 1:1000), total eIF2α (5324), ATF4 (11815, used at 1:1000), PDGFRβ (3169), IGF1Rβ (9750), EGFR (2232), and HER2 (2242) were from Cell Signaling Technology. Phospho-RSK antibody was from R&D (AF889). Antibodies to total STAT3 (sc-482) and gp130 (sc-656, used at 1:1000) were from Santa Cruz Biotechnology. Phospho-S727 STAT3 antibody was described previously (229). REDD1 antibody was from Proteintech (10638-1-AP, used at 1:1000). Antibody recognizing full-length and cleaved ATF6 was from Abcam (ab122897, used at 1:1000). Antibodies to tubulin (T5168) and beta actin (A5316) were from Sigma. All antibodies were used at 1:10000 dilution for western blot unless otherwise noted. […] Cell viability was measured as ATP-dependent luminescence by Cell Titer Glo (Promega). […]

In the next experiment the test system is mTOR pathway. In words: Western blot of mTOR pathway markers (S6, S6K, 4E-BP1). In kind it is cell-based. The procedure:
Western blotting was performed as previously described (Battle T E, Arbiser J, & Frank D A (2005) The natural product honokiol induces caspase dependent apoptosis in B-cell chronic lymphocytic leukemia (B-CLL) cells. Blood 106(2):690-697). Antibodies to phospho-MAPK (9101), total MAPK (9102), phospho-Y705 STAT3 (9131), phospho-S6 (2215), total S6 (2217), phospho-4E-BP1 (9451), total 4E-BP1 (9644), total RSK (9355), phospho-S6K (9234, 85 used at 1:5000), total S6K (2708), phospho-eIF2α (9721, used at 1:1000), total eIF2α (5324), ATF4 (11815, used at 1:1000), PDGFRβ (3169), IGF1Rβ (9750), EGFR (2232), and HER2 (2242) were from Cell Signaling Technology. Phospho-RSK antibody was from R&D (AF889). Antibodies to total STAT3 (sc-482) and gp130 (sc-656, used at 1:1000) were from Santa Cruz Biotechnology. Phospho-S727 STAT3 antibody was described previously (229). REDD1 antibody was from Proteintech (10638-1-AP, used at 1:1000). Antibody recognizing full-length and cleaved ATF6 was from Abcam (ab122897, used at 1:1000). Antibodies to tubulin (T5168) and beta actin (A5316) were from Sigma. All antibodies were used at 1:10000 dilution for western blot unless otherwise noted. For immunoprecipitations, cells were lysed in 500 μl lysis buffer (0.5% NP-40, 150 mM NaCl, 50 mM Tris pH 7.5, with protease and phosphatase inhibitors freshly added at 1:100 [Pierce, PI78443]) on ice for 15 minutes, then centrifuged for 10 minutes at 14,000 RPM and 4° C. The supernatant was transferred to a new tube and incubated with 10 μl JAK2 antibody (Santa Cruz sc-278) or a mix of two TYK2 antibodies, 10 μl of each (Santa Cruz sc-5271 and Cell Signaling Technology 9312). Immunoprecipitation was performed overnight at 4° C. with rotation. The next day, 75 μl of protein A/G beads (Santa Cruz sc-2003) were washed twice in lysis buffer, then incubated with immunoprecipitates overnight as before. The next day, the beads were spun down (1 min. at 7,500 RPM and 4° C.) and washed 3 times with 650 μl lysis buffer for 10 minutes at 4° C. with rotation, then boiled in 50 μl sample buffer+10% β-mercaptoethanol. For Western blot, 20 μl were loaded per lane. For detection of phospho-tyrosine, a mixture of two pan-phospho-tyrosine antibodies (Cell Signaling Technology 9411 and 9416, 1:1000 of each) was used. Antibody to phospho-Y1007/1008 JAK2 was from Cell Signaling 86 Technology (3771, used at 1:1000). Antibody to phospho-Y570 JAK2 was from Millipore (09-241, used at 1:1000). Luminometric Assays Luciferase reporter cell lines were described previously (186). Firefly luciferase values were normalized by concurrent cell viability. Cell viability was measured as ATP-dependent luminescence by Cell Titer Glo (Promega).
K562 cells were treated with atovaquone (20 μM) or rapamycin (10 nM) for 1 hour or 5 hours, then analyzed by Western blot. […] The requirement for prolonged treatment to observe mTOR inhibition raised the possibility that this effect was mediated by an induced factor. To test this hypothesis, cells were pretreated with cycloheximide, a protein synthesis inhibitor. K562 cells were pre-treated with vehicle or cycloheximide (2 μg/ml) for 1 hour, then treated with vehicle or atovaquone (20 μM) for 5 hours. […] Similar results were obtained with actinomycin D, an inhibitor of mRNA synthesis.
To evaluate the role of REDD1, RNA interference was used to knock down its expression in adherent SKBR3 cells, given the relative ease of introducing siRNA into these cells. SKBR3 cells were transfected with control or REDD1 siRNA for 48 hours, then treated with atovaquone (25 μM) for 4 hours.
Next, U266 cells were treated with 12.5 or 25 μM buparvaquone or 1, 5, or 25 μM 2-(4-(trans-decahydronaphth-2-yl)butyl)-3-hydroxy-1,4-naphthoquinone (Sigma analog), or DMSO vehicle control, for 2.5 hours, after which cells were harvested and immunoblots were performed with antibodies for total and phospho STAT3 and total and phospho S6.
A general note: A western blot detects proteins with antibodies after separation by electrophoresis.

Setting [1] is: K562, 20 μM, only after 5 hours, efficacy comparable to rapamycin.

For the molecule `O=C1C(O)=C([C@H]2CC[C@H](c3ccc(Cl)cc3)CC2)C(=O)c2ccccc21` [atovaquone, trans-2-[4-(4-chlorophenyl)cyclohexyl]-3-hydroxy-1,4-naphthalenedione], the “viability of HEL cells” value in the experiment with HEL cells is “killed”. Besides, in the experiment on mTOR pathway (setting [1]), the “phosphorylation of 4E-BP1” value was “inhibited phosphorylation of 4E-BP1” and the “phosphorylation of ribosomal protein S6” value is recorded as “inhibited phosphorylation”. Further, the “phosphorylation of p70S6K” value in the experiment on mTOR pathway (K562, 6 hours) was “inhibited phosphorylation of p70S6K”. Also, the “inhibition of S6 phosphorylation after cycloheximide pre-treatment” value in the experiment with mTOR pathway (K562 and U266, cycloheximide 2 μg/ml 1 hour) is on record as “blocked in the presence of cycloheximide”. The “inhibition of S6 phosphorylation after REDD1 knock down” value with mTOR pathway (SKBR3, REDD1 siRNA 48 hours, 25 μM 4 hours) was “largely blocked”.
